Reference: article PMC5607274, “An iterative compound screening contest method for identifying target protein inhibitors using the tyrosine-protein kinase Yes” (Scientific Reports, 2017)
One block for each compound: values may come before it.

Target: T1, human recombinant Yes [a.a. 2–543 (end)] (Homo sapiens, UniProt P07947)
T1 construct: human recombinant Yes [a.a; 2–543 (end)]; purchased BPS Bioscience 40488
Test: ADP-Glo kinase assay, inhibition rates of Yes phosphorylation activity (first and second screening)
Assay type: biochemical
Details: first screening; mean of n = 4 wells; 10 μmol L−1 compound
Summary of the method: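 ADP-Glo luminescence measured inhibition of human recombinant Yes (a.a. 2–543) phosphorylation activity. In the first screen, each compound ran in 4 wells and inhibition rates were averaged. The second screen retested hits as compounds dissolved from fresh powder.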

T1 sequence (P07947 2-543): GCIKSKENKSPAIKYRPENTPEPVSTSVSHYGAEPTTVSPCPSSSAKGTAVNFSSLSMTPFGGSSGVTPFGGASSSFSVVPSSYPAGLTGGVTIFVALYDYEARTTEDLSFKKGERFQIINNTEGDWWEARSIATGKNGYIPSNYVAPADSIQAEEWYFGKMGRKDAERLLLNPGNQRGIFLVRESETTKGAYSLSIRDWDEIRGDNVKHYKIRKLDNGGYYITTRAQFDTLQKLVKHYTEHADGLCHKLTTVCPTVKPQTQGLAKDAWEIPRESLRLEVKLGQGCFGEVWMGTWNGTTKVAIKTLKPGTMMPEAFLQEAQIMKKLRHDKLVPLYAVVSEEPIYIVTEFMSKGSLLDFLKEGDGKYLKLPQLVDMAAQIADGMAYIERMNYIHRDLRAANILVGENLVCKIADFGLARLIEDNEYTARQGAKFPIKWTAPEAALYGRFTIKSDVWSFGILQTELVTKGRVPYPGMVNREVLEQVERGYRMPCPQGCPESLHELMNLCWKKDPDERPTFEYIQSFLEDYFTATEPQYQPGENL

Structure (SMILES): Cc1sc2nc(CN3CCOCC3)nc(Oc3ccc(NC(=O)c4ccc(C(C)(C)C)cc4)cc3)c2c1C [Compound Z31089732]
First screening IR (inhibition rate): -13%

Structure (SMILES): Cn1cc(CNC2CCc3ncnn3C2)c(-c2ccncc2)n1 (stereo not shown) [Compound Z1139562831]
First screening IR (inhibition rate): 22%

Structure (SMILES): O=C(Nc1nc(-c2ccc[nH]2)cs1)c1csc(-c2ccco2)n1 [Compound Z296244664]
First screening IR (inhibition rate): -6%

Structure (SMILES): CC(C)=CC1C(C(=O)Nc2c(C)cc(C)cc2C)C1(C)C (stereo not shown) [Compound Z169558548]
First screening IR (inhibition rate): 2%

Structure (SMILES): N#CCCN(CCN1CCOCC1)Cc1cn[nH]c1-c1c(F)cccc1F [Compound Z1470747510]
First screening IR (inhibition rate): -6%

Structure (SMILES): CC(Sc1nnnn1C)C(=O)Nc1ccc2c(c1)OCO2 (stereo not shown) [Compound Z18519758]
First screening IR (inhibition rate): 5%

Structure (SMILES): Cc1cc(S(=O)(=O)Nc2cc(-c3ccncc3)nn2C)ccc1Br [Compound Z1270579889]
First screening IR (inhibition rate): 54%

Structure (SMILES): CC(C)CN(C1CCS(=O)(=O)C1)S(C)(=O)=O (stereo not shown) [Compound Z133987698]
First screening IR (inhibition rate): 12%

Structure (SMILES): Oc1cccc(CN(c2ncnc3ccsc23)C2CC2)c1 [Compound Z826941792]
First screening IR (inhibition rate): 1%

Structure (SMILES): O=C(COC(=O)c1ccco1)Nc1nc2ccc([N+](=O)[O-])cc2s1 [Compound Z85929771]
First screening IR (inhibition rate): 10%

Structure (SMILES): CC(C)S(=O)(=O)CCS(=O)(=O)c1cccc(Br)c1 [Compound Z1347351377]
First screening IR (inhibition rate): -2%

Structure (SMILES): Cc1nc(CN)ccc1C(=O)Nc1ccc(Oc2ccc(Cl)cc2Cl)c(F)c1.Cl [Compound Z1561183584]
First screening IR (inhibition rate): -5%

Structure (SMILES): CCC(CC)N(C)S(=O)(=O)c1ccc(S(N)(=O)=O)cc1 [Compound Z369246436]
First screening IR (inhibition rate): -4%

Structure (SMILES): Cn1c(=O)[nH]c(=O)c2cc(C(=O)OCCNc3ncccc3C#N)cnc21 [Compound Z1633934253]
First screening IR (inhibition rate): -1%

Structure (SMILES): COCCOC(=O)c1cc(-c2ccc(C)cc2)nc2c1cnn2C(C)C [Compound Z226924464]
First screening IR (inhibition rate): 6%

Structure (SMILES): Oc1ccc(F)cc1C1=NNC(c2cc(Br)cc3c2OCOC3)C1 (stereo not shown) [Compound Z57604399]
First screening IR (inhibition rate): -12%

Structure (SMILES): CCSc1ccc(C(=O)NCCc2nc(-c3ccco3)n[nH]2)cn1 [Compound Z1174718157]
First screening IR (inhibition rate): 62%

Structure (SMILES): COC(=O)c1cc(-c2ccc(C)cc2)nc2c1cnn2C(C)C [Compound Z90671680]
First screening IR (inhibition rate): 26%

Structure (SMILES): CC(OC(=O)c1ccc(-c2ccc(O)cc2)cc1)C(=O)c1ccc(F)c(F)c1 (stereo not shown) [Compound Z54379277]
First screening IR (inhibition rate): 27%

Structure (SMILES): Nc1ccnc(-c2cncs2)n1 [Compound Z1407063064]
First screening IR (inhibition rate): -14%

Structure (SMILES): Cc1ccccc1C1CCCN1c1ncnc2nc[nH]c12 (stereo not shown) [Compound Z1343261311]
First screening IR (inhibition rate): 42%

Structure (SMILES): Cc1cccc(OCC(=O)Nc2sc3c(c2C(N)=O)CCC3)c1 [Compound Z26345967]
First screening IR (inhibition rate): 18%

Structure (SMILES): Nc1nc(NCC(=O)O)nc(NCC2CCCO2)c1[N+](=O)[O-] (stereo not shown) [Compound Z244561600]
First screening IR (inhibition rate): 9%

The next lines start with the values.

First screening IR (inhibition rate): 9%
Structure (SMILES): Cc1n[nH]c(C)c1C(C)C(=O)NCC(c1cccc(Cl)c1)N1CCCC1 (stereo not shown) [Compound Z1172045589]

First screening IR (inhibition rate): -11%
Structure (SMILES): O=C(OCc1cccc(C(F)(F)F)c1)c1n[nH]c(=O)c2ccccc12 [Compound Z94561070]

First screening IR (inhibition rate): 3%
Structure (SMILES): O=C(NCc1ccc(-n2ccnc2)nc1)c1ccc(-c2ccccc2)cc1 [Compound Z363639532]

First screening IR (inhibition rate): -7%
Structure (SMILES): O=C(NCCc1cnn(-c2ccccc2)c1)c1cnn(-c2ccccc2)c1 [Compound Z234515634]

First screening IR (inhibition rate): 1%
Structure (SMILES): N#CC(C(=O)CCc1ccc(F)cc1)c1nc2cc(Cl)ccc2c(=O)[nH]1 (stereo not shown) [Compound Z594627070]

First screening IR (inhibition rate): 9%
Structure (SMILES): Nc1c(S(=O)(=O)c2ccccc2)c2nc3ccccc3nc2n1CCNC(=O)c1ccc(Cl)cc1 [Compound Z56854331]

First screening IR (inhibition rate): 2%
Structure (SMILES): CCc1cccc(OCC(=O)C(C#N)c2nc3ccccc3[nH]2)c1 (stereo not shown) [Compound Z56595958]

First screening IR (inhibition rate): -5%
Structure (SMILES): CCCn1c(=O)[nH]c(=O)c2c(C(=O)Nc3ccccc3N3CCOCC3)cc(C3CC3)nc21 [Compound Z337770612]

First screening IR (inhibition rate): 23%
Structure (SMILES): O=C(Oc1cccnc1Br)c1nn(-c2ccccc2)c(=O)c2ccccc12 [Compound Z817738176]

First screening IR (inhibition rate): -14%
Structure (SMILES): O=C(CCc1cnn(-c2ccccc2)c1)Nc1n[nH]c(-c2ccccn2)n1 [Compound Z653343234]

First screening IR (inhibition rate): 1%
Structure (SMILES): COc1ccc2cc(C3(C)NC(=O)N(CN4CCN(C/C=C/c5ccccc5)CC4)C3=O)ccc2c1 (stereo not shown) [Compound Z44124119]

First screening IR (inhibition rate): -9%
Structure (SMILES): CC(Oc1cccc(Cl)c1Cl)C(=O)Nc1ccc2nc[nH]c(=O)c2c1 (stereo not shown) [Compound Z927306002]

First screening IR (inhibition rate): 44%
Structure (SMILES): Cc1ccccc1-n1c(=O)c2ccccc2n2c(=S)n(CN3CCN(CCC(C)C)CC3)nc12 [Compound Z431773138]

First screening IR (inhibition rate): 7%
Structure (SMILES): COc1ccc(/C=C2/CCCc3c2nc2ccccc2c3C(=O)OCC(=O)Nc2sc3c(c2C(=O)Nc2ccc(Cl)cc2)CCCC3)cc1 [Compound Z19394488]

First screening IR (inhibition rate): 6%
Structure (SMILES): O=C(CN1C(=O)NC(Cc2c[nH]c3ccccc23)C1=O)Nc1ccc(-c2ccccc2)cc1 (stereo not shown) [Compound Z16202306]

First screening IR (inhibition rate): 4%
Structure (SMILES): CN(Cc1cnn(-c2ccccc2)c1)C(=O)c1ccc(Cl)c(S(=O)(=O)N2CCCCCC2)c1 [Compound Z115152726]

First screening IR (inhibition rate): 4%
Structure (SMILES): Cc1c(C(=O)NCCOc2ccccc2)[nH]c2c1C(=O)CCC2 [Compound Z51800409]

First screening IR (inhibition rate): 4%
Structure (SMILES): CC(=O)c1c[nH]c(C(=O)NCc2csc(-c3ccccc3)n2)c1 [Compound Z236994250]

First screening IR (inhibition rate): 1%
Structure (SMILES): CCn1c2ccccc2c2cc(NC(=O)COC(=O)c3c4c(nc5ccccc35)CCCC4)ccc21 [Compound Z19690549]

First screening IR (inhibition rate): -2%
Structure (SMILES): O=C(O)c1c2c(nc3ccccc13)/C(=C\c1ccc(O)c(Br)c1)CCC2 [Compound Z46036098]

First screening IR (inhibition rate): -15%
Structure (SMILES): CC(=O)Nc1ccc(/C=C/C(=O)c2ccccc2-n2cccn2)cc1 [Compound Z839413590]

First screening IR (inhibition rate): 48%
Structure (SMILES): COc1cccc(-c2cc(-c3ccc(Cl)cc3)c3ccccc3n2)c1 [Compound Z1844441844]

First screening IR (inhibition rate): 6%
Structure (SMILES): CCCN(Cc1cccnc1OC)C1CCN(C(=O)c2ccccc2)CC1 [Compound Z1415907924]

First screening IR (inhibition rate): 6%
Structure (SMILES): O=C1NC(c2ccc(OCc3cn4ccccc4n3)cc2)Nc2ccccc21 (stereo not shown) [Compound Z135163592]

First screening IR (inhibition rate): -9%
Structure (SMILES): CN(CCS(=O)(=O)c1cc(Cl)ccc1Cl)Cc1nc2ccccc2c(=O)[nH]1 [Compound Z46302626]

First screening IR (inhibition rate): 1%
Structure (SMILES): Cc1ccc(O)c(-c2cc(-c3ccccc3)c3ccccc3n2)c1.Cl [Compound Z48951082]

First screening IR (inhibition rate): 8%
Structure (SMILES): Cc1ccc(C)c(N2C(=O)c3ccc(C(=O)Nc4ccc(N5CCN(C)CC5)cc4C)cc3C2=O)c1 [Compound Z27972425]

First screening IR (inhibition rate): 5%
Structure (SMILES): Cn1nc([N+](=O)[O-])c2c(-c3nc4ccccc4n3C)c(N)n(C3CCCCC3)c2c1=O [Compound Z56852588]

First screening IR (inhibition rate): 11%
Structure (SMILES): Cl.Fc1ccccc1-c1cc(-c2ccccc2F)c2cc(Cl)ccc2n1 [Compound Z48955797]
